Results: US6455540B1, “Methods of use of quinolone compounds against anaerobic pathogenic bacteria” (priority 1999, dated 2002)
≈ marks a conversion by molar mass, not a printed value.

Assays:
Assay in all cases: Agar dilution MIC
[1] = system: Actinomyces odontolyticus; format: cell-based; conditions: Schaalia odontolytica, 10 isolates
Actinomyces israelii = format: cell-based; conditions: 6 isolates
[2] = system: Anaerobiospirillum thomasii; format: cell-based; conditions: 13 isolates
[3] = system: Anaerobiospirillum succiniciproducens; format: cell-based; conditions: 3 isolates
Bacteroides gracilis = format: cell-based, Bacteroides gracilis (Campylobacter gracilis); conditions: Campylobacter gracilis, 11 isolates
Bacteroides tectum = format: cell-based; conditions: 22 isolates
Bacteroides ureolyticus = format: cell-based; conditions: Campylobacter ureolyticus, 17 isolates
Bilophila wadsworthia = format: cell-based; conditions: 16 isolates, agar supplemented with pyruvate
[4] = system: Clostridium clostridioforme; format: cell-based; conditions: Clostridium, 11 isolates
Clostridium dfficile = format: cell-based, Clostridium difficile; conditions: Clostridium
Clostridium inocuum = format: cell-based, Clostridium innocuum; conditions: Clostridium, 11 isolates
Clostridium ramosum = format: cell-based; conditions: Thomasclavelia ramosa, 10 isolates
[5] = system: Fusobacterium spp group 1; format: cell-based; conditions: Fusobacterium, 19 isolates
[6] = system: Fusobacterium spp. group 2; format: cell-based, Fusobacterium mortiferum, necrogenes, ulcerans; conditions: Fusobacterium, 12 isolates
Fusobacterium russii = format: cell-based; conditions: Fusobacterium russii
Fusobacterium varium = format: cell-based; conditions: Fusobacterium varium, 17 isolates
[7] = system: Peptostreptococcus asaccharolyticus; format: cell-based; conditions: Peptoniphilus asaccharolyticus, 11 isolates
[8] = system: Peptostreptococcus magnus; format: cell-based; conditions: Finegoldia magna, 13 isolates
[9] = system: Peptostreptococcus micros; format: cell-based; conditions: 12 isolates
[10] = system: Peptostreptococcus prevotii; format: cell-based; conditions: Anaerococcus prevotii, read-out: Minimal Inhibitory Concentration 50% (MIC50); 9 isolates
[11] = system: Porphyromonas asaccharolyticus; format: cell-based, Porphyromonas asaccharolytica; conditions: 11 isolates
Porphyromonas canoris = format: cell-based; conditions: 10 isolates
Porphyromonas gingivalis = format: cell-based; conditions: 13 isolates
Porphyromonas macaccae = format: cell-based; conditions: 13 isolates
Porphyromonas spp. = format: cell-based, Porphyromonas cangingivalis, cansulci, circumdentaria, levii; conditions: Porphyromonas, 11 isolates
Prevotella bivia = format: cell-based; conditions: Prevotella bivia, 21 isolates
[12] = system: Prevotella buccae-oris group; format: cell-based; conditions: 22 isolates
[13] = system: Prevotella heparinolytica; format: cell-based; conditions: 16 isolates
Prevotella intermedia = format: cell-based; conditions: 11 isolates
[14] = system: Prevotella melaninogenica; format: cell-based; conditions: 12 isolates
[15] = system: Prevotella denticola/loeschii group; format: cell-based; conditions: Prevotella denticola, read-out: Minimal Inhibitory Concentration 50% (MIC50); 6 isolates
Veillonella spp. = format: cell-based; conditions: Veillonella, 24 isolates
[16] = read-out: Minimal Inhibitory Concentration 90% (MIC90)
[17] = read-out: Minimal Inhibitory Concentration 50% (MIC50)
[18] = Porphyromonas, read-out: Minimal Inhibitory Concentration 50% (MIC50)
[19] = Porphyromonas, read-out: Minimal Inhibitory Concentration 90% (MIC90)

With `CC[C@H]1OC(=O)[C@H](C)[C@@H](O[C@H]2C[C@@](C)(OC)[C@@H](O)[C@H](C)O2)[C@H](C)[C@@H](O[C@@H]2O[C@H](C)C[C@H](N(C)C)[C@H]2O)[C@](C)(O)C[C@@H](C)C(=O)[C@H](C)[C@@H](O)[C@]1(C)O` [Erythromycin] the MIC90 [1, 16] was 0.03 µg/mL (≈ 0.0409 µM), the MIC50 [1, 17] was ≤ 0.015 µg/mL and the “Minimal Inhibitory Concentration Range” value (Actinomyces israelii) was 0.03 µg/mL. The MIC50 (Actinomyces israelii; Actinomyces israelii, read-out: Minimal Inhibitory Concentration 50% (MIC50)) was 0.03 µg/mL (≈ 0.0409 µM), the “Minimal Inhibitory Concentration Range” value [2] was 1 to 16 µg/mL and the MIC50 ([2]; Anaerobiospirillum thomasii, read-out: Minimal Inhibitory Concentration 50% (MIC50)) was 4 µg/mL (≈ 5.45 µM). The MIC90 ([2]; Anaerobiospirillum thomasii, read-out: Minimal Inhibitory Concentration 90% (MIC90)) was 8 µg/mL (≈ 10.9 µM), the “Minimal Inhibitory Concentration Range” value [3] was 8 to 16 µg/mL and the MIC50 ([3]; Anaerobiospirillum succiniciproducens, read-out: Minimal Inhibitory Concentration 50% (MIC50)) was 16 µg/mL (≈ 21.8 µM). For the same compound, the MIC90 (Bacteroides gracilis; [16]) was 2 µg/mL (≈ 2.73 µM), the MIC50 (Bacteroides gracilis; [17]) was 1 µg/mL (≈ 1.36 µM) and the “Minimal Inhibitory Concentration Range” value (Bacteroides tectum) was 0.25 to 1 µg/mL. It also gave an MIC90 (Bacteroides tectum; Bacteroides pyogenes, read-out: Minimal Inhibitory Concentration 90% (MIC90)) of 0.5 µg/mL (≈ 0.681 µM), an MIC50 (Bacteroides tectum; Bacteroides pyogenes, read-out: Minimal Inhibitory Concentration 50% (MIC50)) of 0.5 µg/mL (≈ 0.681 µM) and an MIC90 (Bacteroides ureolyticus; [16]) of 2 µg/mL (≈ 2.73 µM). For the same compound, the MIC50 (Bacteroides ureolyticus; [17]) was 0.025 µg/mL (≈ 0.0341 µM), the “Minimal Inhibitory Concentration Range” value (Bilophila wadsworthia) was 4 to 32 µg/mL and the MIC90 (Bilophila wadsworthia; Bilophila wadsworthia, read-out: Minimal Inhibitory Concentration 90% (MIC90)) was 32 µg/mL (≈ 43.6 µM). The MIC50 (Bilophila wadsworthia; Bilophila wadsworthia, read-out: Minimal Inhibitory Concentration 50% (MIC50)) was 16 µg/mL (≈ 21.8 µM), the MIC90 [4, 16] was > 32 µg/mL and the MIC50 [4, 17] was 16 µg/mL (≈ 21.8 µM). The MIC50 (Clostridium dfficile; [17]) was 0.5 µg/mL (≈ 0.681 µM), the MIC90 (Clostridium dfficile; read-out: Minimal Inhibitory Concentration 90% (MIC90), 14 isolates) was > 32 µg/mL and the MIC90 (Clostridium inocuum; [16]) was > 32 µg/mL. The MIC50 (Clostridium inocuum; [17]) was > 32 µg/mL, the MIC50 (Clostridium ramosum; [17]) was 1 µg/mL (≈ 1.36 µM) and the MIC90 (Clostridium ramosum; [16]) was > 32 µg/mL. For the same compound, the MIC50 ([5]; GROUP1, read-out: Minimal Inhibitory Concentration 50% (MIC50)) was 8 µg/mL (≈ 10.9 µM), the MIC90 ([5]; GROUP1, read-out: Minimal Inhibitory Concentration 90% (MIC90)) was 32 µg/mL (≈ 43.6 µM) and the MIC50 [6, 17] was > 32 µg/mL. For the same compound, the MIC90 [6, 16] was > 32 µg/mL, the MIC50 (Fusobacterium russii; [17]) was 4 µg/mL (≈ 5.45 µM) and the MIC90 (Fusobacterium russii; [16]) was > 32 µg/mL. For the same compound, the MIC50 (Fusobacterium varium; [17]) was > 32 µg/mL, the MIC90 (Fusobacterium varium; [16]) was > 32 µg/mL and the MIC50 [7, 17] was 4 µg/mL (≈ 5.45 µM). The MIC90 [7, 16] was > 32 µg/mL, the MIC50 [8, 17] was 4 µg/mL (≈ 5.45 µM) and the MIC90 [8, 16] was > 32 µg/mL. For the same compound, the “Minimal Inhibitory Concentration Range” value [9] was 0.5 to 1 µg/mL, the MIC50 ([9]; Parvimonas micra, read-out: Minimal Inhibitory Concentration 50% (MIC50)) was 0.5 µg/mL (≈ 0.681 µM) and the MIC90 ([9]; Parvimonas micra, read-out: Minimal Inhibitory Concentration 90% (MIC90)) was 0.5 µg/mL (≈ 0.681 µM). The MIC50 [10] was > 32 µg/mL, the “Minimal Inhibitory Concentration Range” value [11] was 0.03 to 32 µg/mL and the MIC50 [11, 18] was 0.03 µg/mL (≈ 0.0409 µM). The MIC90 [11, 19] was 32 µg/mL (≈ 43.6 µM), the “Minimal Inhibitory Concentration Range” value (Porphyromonas canoris) was 0.03 to 0.25 µg/mL and the MIC50 (Porphyromonas canoris; Porphyromonas canoris, read-out: Minimal Inhibitory Concentration 50% (MIC50)) was 0.06 µg/mL (≈ 0.0818 µM). The MIC90 (Porphyromonas canoris; Porphyromonas canoris, read-out: Minimal Inhibitory Concentration 90% (MIC90)) was 0.125 µg/mL (≈ 0.17 µM), the “Minimal Inhibitory Concentration Range” value (Porphyromonas gingivalis) was 0.06 to 0.5 µg/mL and the MIC50 (Porphyromonas gingivalis; Porphyromonas gingivalis, read-out: Minimal Inhibitory Concentration 50% (MIC50)) was 0.125 µg/mL (≈ 0.17 µM). For the same compound, the MIC90 (Porphyromonas gingivalis; Porphyromonas gingivalis, read-out: Minimal Inhibitory Concentration 90% (MIC90)) was 0.5 µg/mL (≈ 0.681 µM), the “Minimal Inhibitory Concentration Range” value (Porphyromonas macaccae) was 0.06 to 0.25 µg/mL and the MIC50 (Porphyromonas macaccae; [18]) was 0.125 µg/mL (≈ 0.17 µM). It also gave an MIC90 (Porphyromonas macaccae; [19]) of 0.25 µg/mL (≈ 0.341 µM), an MIC50 (Porphyromonas spp.; [17]) of 0.06 µg/mL (≈ 0.0818 µM) and an MIC90 (Porphyromonas spp.; [16]) of 0.06 µg/mL (≈ 0.0818 µM). For the same compound, the MIC90 (Prevotella bivia; [16]) was 2 µg/mL (≈ 2.73 µM), the MIC50 (Prevotella bivia; [17]) was 1 µg/mL (≈ 1.36 µM) and the “Minimal Inhibitory Concentration Range” value [12] was 0.5 to 8 µg/mL. The MIC90 ([12]; Prevotella, read-out: Minimal Inhibitory Concentration 90% (MIC90)) was 2 µg/mL (≈ 2.73 µM), the MIC50 ([12]; Prevotella, read-out: Minimal Inhibitory Concentration 50% (MIC50)) was 1 µg/mL (≈ 1.36 µM) and the “Minimal Inhibitory Concentration Range” value [13] was 0.25 to 0.5 µg/mL. For the same compound, the MIC90 ([13]; Prevotella heparinolytica, read-out: Minimal Inhibitory Concentration 90% (MIC90)) was 0.25 µg/mL (≈ 0.341 µM), the MIC50 ([13]; Prevotella heparinolytica, read-out: Minimal Inhibitory Concentration 50% (MIC50)) was 0.25 µg/mL (≈ 0.341 µM) and the “Minimal Inhibitory Concentration Range” value (Prevotella intermedia) was 0.03 to 0.5 µg/mL. For the same compound, the MIC90 (Prevotella intermedia; Prevotella intermedia, read-out: Minimal Inhibitory Concentration 90% (MIC90)) was 0.25 µg/mL (≈ 0.341 µM), the MIC50 (Prevotella intermedia; Prevotella intermedia, read-out: Minimal Inhibitory Concentration 50% (MIC50)) was 0.06 µg/mL (≈ 0.0818 µM) and the “Minimal Inhibitory Concentration Range” value [14] was 0.06 to 32 µg/mL. It also gave an MIC90 ([14]; Prevotella melaninogenica, read-out: Minimal Inhibitory Concentration 90% (MIC90)) of 8 µg/mL (≈ 10.9 µM), an MIC50 ([14]; Prevotella melaninogenica, read-out: Minimal Inhibitory Concentration 50% (MIC50)) of 1 µg/mL (≈ 1.36 µM) and an MIC50 [15] of 0.25 µg/mL (≈ 0.341 µM). For the same compound, the MIC90 (Veillonella spp.; [16]) was > 32 µg/mL and the MIC50 (Veillonella spp.; [17]) was 16 µg/mL (≈ 21.8 µM).
